Experimental data reported in ChEMBL document CHEMBL2069273, “Modulation of cofilin phosphorylation by inhibition of the Lim family kinases” (Bioorg Med Chem Lett, 2012).
Active and inactive are the calls of the source. The calls are words filed in the database; no cut-off is given here.

How the values were obtained:
[1] = biological target: Dual specificity testis-specific protein kinase 1 (Homo sapiens, UniProt Q15569); experiment: Inhibition of TESK1
[2] = biological target: T1, Dual specificity testis-specific protein kinase 2 (Homo sapiens, UniProt Q96S53); experiment: Inhibition of TESK2
Target sequence in this assay (Q96S53 whole entry, the tested form may be a part): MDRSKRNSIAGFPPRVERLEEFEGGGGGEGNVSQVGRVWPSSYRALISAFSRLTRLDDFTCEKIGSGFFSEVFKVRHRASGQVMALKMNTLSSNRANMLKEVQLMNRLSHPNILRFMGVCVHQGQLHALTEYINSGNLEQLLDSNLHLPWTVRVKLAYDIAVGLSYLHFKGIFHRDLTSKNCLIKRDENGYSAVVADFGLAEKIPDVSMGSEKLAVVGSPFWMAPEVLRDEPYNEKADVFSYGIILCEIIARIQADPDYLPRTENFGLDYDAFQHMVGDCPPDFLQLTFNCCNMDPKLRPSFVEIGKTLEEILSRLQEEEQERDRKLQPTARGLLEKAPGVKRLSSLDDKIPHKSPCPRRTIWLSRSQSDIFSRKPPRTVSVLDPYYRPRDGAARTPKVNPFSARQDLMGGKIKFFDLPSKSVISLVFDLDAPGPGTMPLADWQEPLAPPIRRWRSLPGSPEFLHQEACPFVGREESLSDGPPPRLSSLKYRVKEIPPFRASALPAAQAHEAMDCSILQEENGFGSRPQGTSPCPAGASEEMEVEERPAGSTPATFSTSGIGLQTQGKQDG

LIM domain kinase 1 [3] = biological target: T2, LIM domain kinase 1 (Homo sapiens, UniProt P53667); experiment: Inhibition of LIMK1
Target sequence in this assay (P53667 whole entry, the tested form may be a part): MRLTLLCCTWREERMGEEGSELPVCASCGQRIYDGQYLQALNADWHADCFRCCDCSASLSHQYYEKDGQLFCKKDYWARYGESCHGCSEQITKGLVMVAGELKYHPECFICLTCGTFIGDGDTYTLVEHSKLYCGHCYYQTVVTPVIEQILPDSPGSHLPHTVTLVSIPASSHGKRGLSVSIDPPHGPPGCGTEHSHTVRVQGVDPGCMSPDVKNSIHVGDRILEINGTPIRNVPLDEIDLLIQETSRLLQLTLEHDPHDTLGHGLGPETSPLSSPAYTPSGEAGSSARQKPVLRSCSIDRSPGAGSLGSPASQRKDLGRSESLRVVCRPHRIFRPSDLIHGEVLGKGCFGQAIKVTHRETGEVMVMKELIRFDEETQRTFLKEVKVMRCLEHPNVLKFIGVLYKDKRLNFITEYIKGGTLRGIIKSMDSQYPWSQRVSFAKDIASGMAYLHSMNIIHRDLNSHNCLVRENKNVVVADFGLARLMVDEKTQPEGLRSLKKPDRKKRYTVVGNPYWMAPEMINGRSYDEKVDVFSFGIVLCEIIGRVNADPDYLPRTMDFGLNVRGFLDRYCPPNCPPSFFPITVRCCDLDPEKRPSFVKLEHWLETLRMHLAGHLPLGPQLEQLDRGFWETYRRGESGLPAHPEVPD

LIM domain kinase 2 [4] = biological target: T3, LIM domain kinase 2 (Homo sapiens, UniProt P53671); experiment: Inhibition of LIMK2
Target sequence in this assay (P53671 whole entry, the tested form may be a part): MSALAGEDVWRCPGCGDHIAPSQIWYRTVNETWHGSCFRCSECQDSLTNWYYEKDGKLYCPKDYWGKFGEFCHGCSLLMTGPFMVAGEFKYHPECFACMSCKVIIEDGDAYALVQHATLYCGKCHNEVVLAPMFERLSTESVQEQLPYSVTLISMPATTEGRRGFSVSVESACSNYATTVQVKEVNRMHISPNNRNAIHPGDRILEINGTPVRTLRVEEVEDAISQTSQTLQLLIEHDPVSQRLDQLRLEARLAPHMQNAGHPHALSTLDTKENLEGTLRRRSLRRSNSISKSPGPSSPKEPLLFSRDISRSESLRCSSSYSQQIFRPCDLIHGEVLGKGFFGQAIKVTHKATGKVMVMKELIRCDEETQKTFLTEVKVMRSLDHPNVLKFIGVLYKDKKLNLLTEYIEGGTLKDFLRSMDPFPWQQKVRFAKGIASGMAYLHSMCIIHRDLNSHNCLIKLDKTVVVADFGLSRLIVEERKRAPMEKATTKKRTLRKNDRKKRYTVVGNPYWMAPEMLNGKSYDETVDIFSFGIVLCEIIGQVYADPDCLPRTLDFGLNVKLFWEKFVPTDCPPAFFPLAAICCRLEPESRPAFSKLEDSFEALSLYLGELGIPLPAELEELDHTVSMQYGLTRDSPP

[5] = biological target: T4, Mitogen-activated protein kinase 14 (Homo sapiens, UniProt Q16539); experiment: Inhibition of MAPK p38alpha
[6] = biological target: T1, Dual specificity testis-specific protein kinase 2; experiment: Inhibition of TESK2 at 30 uM
[7] = biological target: T5, TGF-beta receptor type-1 (Homo sapiens) (UniProt P36897); experiment: Binding affinity to human TGFBR1
T5 sequence (whole entry): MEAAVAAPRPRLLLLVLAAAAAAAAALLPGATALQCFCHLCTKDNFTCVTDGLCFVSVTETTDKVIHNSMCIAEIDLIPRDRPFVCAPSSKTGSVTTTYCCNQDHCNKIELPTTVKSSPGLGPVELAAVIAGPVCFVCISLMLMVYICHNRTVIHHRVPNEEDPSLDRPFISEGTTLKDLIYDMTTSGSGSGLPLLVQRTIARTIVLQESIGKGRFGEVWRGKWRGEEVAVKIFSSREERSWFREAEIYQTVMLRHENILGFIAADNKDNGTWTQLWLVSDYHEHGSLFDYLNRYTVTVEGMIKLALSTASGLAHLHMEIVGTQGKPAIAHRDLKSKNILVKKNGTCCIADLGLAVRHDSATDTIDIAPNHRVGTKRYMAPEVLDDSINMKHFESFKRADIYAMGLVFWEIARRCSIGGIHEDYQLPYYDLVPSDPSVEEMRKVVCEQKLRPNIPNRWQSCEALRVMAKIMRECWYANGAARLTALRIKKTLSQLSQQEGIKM

[8] = biological target: Angiopoietin-1 receptor (Homo sapiens) (UniProt Q02763); experiment: Binding affinity to human TIE2
HT-1080 [9] = experiment: Induction of F-actin depolymerization in human HT1080 cells at 5 uM after 2 days by fluorescein-tagged phalloidin staining; format: functional, cell-based
[10] = biological target: T6, Serine/threonine-protein kinase 36 (Homo sapiens) (UniProt Q9NRP7); experiment: Binding affinity to human fused kinase
T6 sequence (whole entry): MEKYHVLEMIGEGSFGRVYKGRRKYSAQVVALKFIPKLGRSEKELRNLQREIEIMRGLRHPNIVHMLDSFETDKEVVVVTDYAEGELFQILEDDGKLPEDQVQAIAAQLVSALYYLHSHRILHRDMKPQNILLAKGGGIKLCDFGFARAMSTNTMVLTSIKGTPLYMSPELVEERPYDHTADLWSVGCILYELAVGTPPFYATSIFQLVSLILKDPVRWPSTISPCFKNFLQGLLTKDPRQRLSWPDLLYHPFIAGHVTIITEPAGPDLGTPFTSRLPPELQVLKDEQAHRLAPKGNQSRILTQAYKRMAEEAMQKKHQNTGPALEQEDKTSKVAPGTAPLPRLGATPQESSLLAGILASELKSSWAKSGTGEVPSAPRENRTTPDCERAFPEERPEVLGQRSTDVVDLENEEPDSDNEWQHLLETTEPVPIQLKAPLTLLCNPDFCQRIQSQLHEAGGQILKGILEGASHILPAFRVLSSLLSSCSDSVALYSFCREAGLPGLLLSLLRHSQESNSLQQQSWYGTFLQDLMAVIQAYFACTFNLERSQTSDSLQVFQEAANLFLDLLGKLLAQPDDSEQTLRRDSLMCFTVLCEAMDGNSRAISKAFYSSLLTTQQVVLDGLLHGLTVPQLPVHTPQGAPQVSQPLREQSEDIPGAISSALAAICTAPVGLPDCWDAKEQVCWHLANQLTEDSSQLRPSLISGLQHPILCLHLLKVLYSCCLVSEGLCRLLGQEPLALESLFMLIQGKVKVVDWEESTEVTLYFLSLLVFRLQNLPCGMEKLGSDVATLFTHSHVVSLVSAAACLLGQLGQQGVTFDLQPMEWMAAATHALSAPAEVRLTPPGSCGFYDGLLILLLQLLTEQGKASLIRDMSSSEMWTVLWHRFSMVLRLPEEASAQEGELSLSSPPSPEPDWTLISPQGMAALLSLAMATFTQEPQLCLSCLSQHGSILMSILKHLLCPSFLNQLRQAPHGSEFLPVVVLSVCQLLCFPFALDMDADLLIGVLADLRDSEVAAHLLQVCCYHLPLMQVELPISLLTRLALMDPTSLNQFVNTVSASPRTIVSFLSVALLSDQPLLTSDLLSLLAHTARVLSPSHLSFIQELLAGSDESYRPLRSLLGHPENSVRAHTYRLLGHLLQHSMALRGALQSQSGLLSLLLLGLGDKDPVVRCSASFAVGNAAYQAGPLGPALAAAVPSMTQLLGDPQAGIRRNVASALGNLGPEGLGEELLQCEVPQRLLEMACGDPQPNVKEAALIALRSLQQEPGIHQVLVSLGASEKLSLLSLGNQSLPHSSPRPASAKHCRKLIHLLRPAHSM

[11] = biological target: Mast/stem cell growth factor receptor Kit (Homo sapiens) (UniProt P10721); experiment: Binding affinity to human KIT
[12] = biological target: T4, Mitogen-activated protein kinase 14; experiment: Binding affinity to human p38alpha
HT-1080 [13] = experiment: Cytotoxicity against human HT1080 cells assessed as inhibition of thymidine incorporation; format: cell-based
[14] = biological target: Epithelial discoidin domain-containing receptor 1 (Homo sapiens) (UniProt Q08345); experiment: Binding affinity to human DDR1
LIM domain kinase 2 [15] = biological target: T3, LIM domain kinase 2; experiment: Binding affinity to human LIMK2
Target sequence in this assay (P53671 whole entry, looked up, the tested form may be a part): as the sequence (P53671 whole entry, the tested form may be a part) above

LIM domain kinase 1 [16] = biological target: T2, LIM domain kinase 1; experiment: Inhibition of LIMK1-mediated cofilin Ser3 phosphorylation in human HT1080 cells; format: cell-based; conditions: HT-1080
LIM domain kinase 2 [17] = biological target: T3, LIM domain kinase 2; experiment: Inhibition of LIMK2-mediated cofilin Ser3 phosphorylation in human HT1080 cells; format: cell-based; conditions: HT-1080
Target sequence in this assay (P53671 whole entry, looked up, the tested form may be a part): as the sequence (P53671 whole entry, the tested form may be a part) above

[18] = tested on: Mast/stem cell growth factor receptor Kit (Homo sapiens), P10721 [V559D]; experiment: Binding affinity to human KIT V559D mutant
[19] = biological target: T7, Activin receptor type-1B (Homo sapiens) (UniProt P36896); experiment: Binding affinity to human Alk4
T7 sequence (whole entry): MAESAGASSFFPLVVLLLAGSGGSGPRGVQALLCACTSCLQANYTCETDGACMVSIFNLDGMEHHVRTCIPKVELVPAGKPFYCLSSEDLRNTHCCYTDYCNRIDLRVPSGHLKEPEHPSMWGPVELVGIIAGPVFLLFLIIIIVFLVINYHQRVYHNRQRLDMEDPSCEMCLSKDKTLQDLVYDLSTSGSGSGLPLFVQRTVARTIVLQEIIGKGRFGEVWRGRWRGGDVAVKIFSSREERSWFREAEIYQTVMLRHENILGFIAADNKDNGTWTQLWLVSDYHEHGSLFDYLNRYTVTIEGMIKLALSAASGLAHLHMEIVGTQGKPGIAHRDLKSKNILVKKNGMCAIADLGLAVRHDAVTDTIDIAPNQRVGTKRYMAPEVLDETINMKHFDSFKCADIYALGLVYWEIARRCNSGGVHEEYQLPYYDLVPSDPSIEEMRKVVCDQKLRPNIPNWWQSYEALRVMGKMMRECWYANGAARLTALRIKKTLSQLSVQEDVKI

T4 sequence (Q16539 whole entry): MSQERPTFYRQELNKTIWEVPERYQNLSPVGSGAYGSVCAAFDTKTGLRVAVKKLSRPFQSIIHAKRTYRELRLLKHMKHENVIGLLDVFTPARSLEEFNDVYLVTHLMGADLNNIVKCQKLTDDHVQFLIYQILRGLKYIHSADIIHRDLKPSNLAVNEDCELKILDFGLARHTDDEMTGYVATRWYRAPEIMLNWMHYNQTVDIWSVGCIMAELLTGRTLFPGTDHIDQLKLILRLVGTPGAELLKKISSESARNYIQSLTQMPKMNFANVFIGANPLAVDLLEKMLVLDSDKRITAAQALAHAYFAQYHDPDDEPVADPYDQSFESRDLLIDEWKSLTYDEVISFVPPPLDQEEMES
Sequence of Dual specificity testis-specific protein kinase 1 (Q15569 whole entry): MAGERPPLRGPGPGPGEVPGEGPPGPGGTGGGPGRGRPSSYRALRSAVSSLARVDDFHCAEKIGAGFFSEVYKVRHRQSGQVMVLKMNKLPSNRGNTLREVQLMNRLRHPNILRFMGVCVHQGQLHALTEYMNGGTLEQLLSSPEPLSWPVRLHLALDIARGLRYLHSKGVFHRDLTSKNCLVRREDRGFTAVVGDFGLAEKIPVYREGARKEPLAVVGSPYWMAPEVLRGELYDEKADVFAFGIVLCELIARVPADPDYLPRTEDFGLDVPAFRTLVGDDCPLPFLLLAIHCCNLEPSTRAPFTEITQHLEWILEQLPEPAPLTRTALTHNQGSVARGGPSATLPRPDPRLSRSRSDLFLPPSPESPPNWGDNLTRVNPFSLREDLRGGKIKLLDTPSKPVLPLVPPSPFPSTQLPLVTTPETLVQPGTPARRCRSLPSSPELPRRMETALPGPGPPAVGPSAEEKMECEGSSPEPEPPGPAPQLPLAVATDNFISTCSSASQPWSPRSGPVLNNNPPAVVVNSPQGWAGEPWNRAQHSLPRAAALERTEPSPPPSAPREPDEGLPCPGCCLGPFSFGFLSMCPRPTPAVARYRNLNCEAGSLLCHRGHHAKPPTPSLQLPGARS
Sequence of Mast/stem cell growth factor receptor Kit (Homo sapiens), P10721 [V559D] (P10721 whole entry V559D): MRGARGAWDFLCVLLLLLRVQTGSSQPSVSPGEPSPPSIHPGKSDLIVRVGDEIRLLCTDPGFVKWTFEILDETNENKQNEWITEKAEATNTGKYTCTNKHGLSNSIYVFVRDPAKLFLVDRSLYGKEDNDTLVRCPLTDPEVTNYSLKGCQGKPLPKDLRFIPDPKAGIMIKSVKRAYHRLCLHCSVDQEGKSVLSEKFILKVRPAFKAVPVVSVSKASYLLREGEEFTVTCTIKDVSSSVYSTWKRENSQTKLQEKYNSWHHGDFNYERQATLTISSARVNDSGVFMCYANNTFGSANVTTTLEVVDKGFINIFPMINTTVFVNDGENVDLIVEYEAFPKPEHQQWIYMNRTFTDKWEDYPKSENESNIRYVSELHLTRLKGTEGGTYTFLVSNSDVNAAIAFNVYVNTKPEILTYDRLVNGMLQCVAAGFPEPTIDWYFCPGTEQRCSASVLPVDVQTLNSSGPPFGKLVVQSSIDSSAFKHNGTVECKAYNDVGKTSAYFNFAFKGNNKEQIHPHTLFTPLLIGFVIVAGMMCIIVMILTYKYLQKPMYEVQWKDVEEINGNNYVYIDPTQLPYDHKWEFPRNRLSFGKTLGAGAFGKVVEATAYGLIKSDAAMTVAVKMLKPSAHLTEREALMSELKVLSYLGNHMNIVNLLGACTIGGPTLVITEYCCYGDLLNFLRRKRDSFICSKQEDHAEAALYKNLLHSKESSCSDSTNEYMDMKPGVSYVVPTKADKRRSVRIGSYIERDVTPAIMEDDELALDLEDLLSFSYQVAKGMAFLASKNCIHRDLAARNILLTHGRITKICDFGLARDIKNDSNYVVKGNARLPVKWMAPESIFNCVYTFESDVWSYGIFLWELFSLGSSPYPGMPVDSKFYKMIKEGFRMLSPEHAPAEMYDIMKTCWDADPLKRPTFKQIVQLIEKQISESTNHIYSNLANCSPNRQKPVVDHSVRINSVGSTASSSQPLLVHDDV

SMILES | IC50 [1] | IC50 [2] | IC50 (LIM domain kinase 1 [3]) | IC50 (LIM domain kinase 2 [4]) | also measured
CCC(CC)Oc1cc(C)c(-c2cc(-c3cnc(NC(=O)OC)s3)nc(-c3cnccn3)n2)c(C)c1 | > 30000 nM | > 30000 nM | 227 nM | 382 nM | –
CCC(CC)Oc1cc(C)c(-c2cc(-c3cnc(NC(=O)NC)s3)nc(-c3cnccn3)n2)c(C)c1 | 2200 nM | 415 nM | 66 nM | 173 nM | –
CCOc1ccc(-c2cc(-c3cnc(NC(C)C)s3)nc(-c3ccccc3F)n2)c(Cl)c1 | – | – | > 50000 nM | – | IC50 [5]: 590 nM
COc1cc(C)c(-c2cc(-c3cnc(NC(C)=O)s3)nc(-c3cnccn3)n2)c(C)c1 | 2260 nM | 612 nM | 87 nM | 59 nM | –
CNC(=O)Nc1ncc(-c2cc(-c3c(C)cc(OC)cc3C)nc(-c3cnccn3)n2)s1 | 1130 nM | 415 nM | 23 nM | 16 nM | –
CCCNc1ncc(-c2cc(-c3c(Cl)cc(OC4CCCC4)cc3Cl)nc(-c3cnccn3)n2)s1 | > 30000 nM | > 30000 nM | 250 nM | 810 nM | –
CNC(=O)Nc1ncc(-c2cc(-c3c(Cl)cc(OC)cc3Cl)nc(-c3cnccn3)n2)s1 | > 30000 nM | > 30000 nM | 32 nM | 12 nM | –
CCC(CC)Oc1cc(C)c(-c2cc(-c3cnc(NC(C)=O)s3)nc(-c3cnccn3)n2)c(C)c1 | > 30000 nM | 2010 nM | 64 nM | 311 nM | –
COC(=O)Nc1ncc(-c2cc(-c3c(C)cc(OC)cc3C)nc(-c3cnccn3)n2)s1 | 11900 nM | 2740 nM | 284 nM | 202 nM | –
CCOc1ccc(-c2cc(-c3cnc(NC(C)C)s3)nc(-c3ccccn3)n2)c(Cl)c1 | – | – | 485 nM | – | IC50 [5]: 3940 nM
CCNC(=O)Nc1ncc(-c2cc(-c3c(C)cc(OC)cc3C)nc(-c3cnccn3)n2)s1 | 455 nM | 252 nM | 58 nM | 38 nM | Activity [7]: Active; Activity [8]: Active; Activity (HT-1080 [9]): Active; Activity [10]: Active; Activity [11]: Active; Activity [12]: inactive; IC50 (HT-1080 [13]): > 50000 nM; Activity [14]: Active; Activity (LIM domain kinase 2 [15]): Active; inhibition (LIM domain kinase 1 [16]): Dose-dependent effect; inhibition (LIM domain kinase 2 [17]): Dose-dependent effect; Activity [18]: Active; Activity [19]: Active
CCC(CC)Oc1cc(C)c(-c2cc(-c3cnc(NC(=O)C(C)C)s3)nc(-c3cnccn3)n2)c(C)c1 | > 12500 nM | > 12500 nM | 172 nM | 245 nM | –

Continued, in another order:

IC50 [1] | IC50 [2] | IC50 (LIM domain kinase 1 [3]) | IC50 (LIM domain kinase 2 [4]) | SMILES | also measured
> 30000 nM | > 30000 nM | 210 nM | 50000 nM | CCCNc1ncc(-c2cc(-c3ccc(OC4CCCC4)cc3Cl)nc(-c3cnccn3)n2)s1 | –
> 30000 nM | > 30000 nM | 115 nM | 141 nM | CCCNc1ncc(-c2cc(-c3c(Cl)cc(OCCC)cc3Cl)nc(-c3cnccn3)n2)s1 | –
> 30000 nM | > 30000 nM | 163 nM | 1530 nM | CCCNc1ncc(-c2cc(-c3c(Cl)cc(OC(CC)CC)cc3Cl)nc(-c3cnccn3)n2)s1 | –
> 30000 nM | > 30000 nM | 145 nM | 28 nM | CCCNc1ncc(-c2cc(-c3cc(OCCC4CCCCC4)ccc3Cl)nc(-c3cnccn3)n2)s1 | –
> 30000 nM | – | 38 nM | 16 nM | CCCNc1ncc(-c2cc(-c3c(Cl)cc(OC)cc3Cl)nc(-c3cnccn3)n2)s1 | inhibition [6]: 72%
– | – | 368 nM | – | CCOc1ccc(-c2cc(-c3cnc(NC(C)C)s3)nc(-c3cnccn3)n2)c(Cl)c1 | IC50 [5]: 2000 nM
> 30000 nM | > 30000 nM | 444 nM | 1540 nM | CCCCCOc1ccc(-c2cc(-c3cnc(NCCC)s3)nc(-c3cnccn3)n2)c(Cl)c1 | –
> 30000 nM | > 30000 nM | 7730 nM | > 12500 nM | CCCNc1ncc(-c2cc(-c3ccc(O)cc3Cl)nc(-c3cnccn3)n2)s1 | –
> 30000 nM | > 30000 nM | 12500 nM | 760 nM | CCCNc1ncc(-c2cc(-c3cc(OC)ccc3Cl)nc(-c3cnccn3)n2)s1 | –
> 30000 nM | > 30000 nM | 1660 nM | 1230 nM | CCCNc1ncc(-c2cc(-c3ccc(OC)cc3Cl)nc(-c3cnccn3)n2)s1 | –
> 30000 nM | > 30000 nM | 1040 nM | 171 nM | CCCNc1ncc(-c2cc(-c3cc(OCCC)ccc3Cl)nc(-c3cnccn3)n2)s1 | –
> 30000 nM | > 30000 nM | 30 nM | 8 nM | COc1cc(Cl)c(-c2cc(-c3cnc(NC(C)=O)s3)nc(-c3cnccn3)n2)c(Cl)c1 | –
> 30000 nM | > 30000 nM | 213 nM | 1220 nM | CCCNc1ncc(-c2cc(-c3ccc(OC(CC)CC)cc3C)nc(-c3cnccn3)n2)s1 | –
> 30000 nM | > 30000 nM | 359 nM | 50000 nM | CCCNc1ncc(-c2cc(-c3ccc(OC(CC)CC)cc3Cl)nc(-c3cnccn3)n2)s1 | –
